Consider one compound from patent publication US8815309B2, “Methods of treating a subject with benign prostate hyperplasia” (Zafgen, Inc., priority 2010, dated 2014).

The subject of the assay is prostate gland. Description: Prostate weight in male rats after once daily intravenous infusion for four weeks. The format is in vivo, rat. Particulars: 15-min iv infusion once daily for four weeks, N=10. How it is done:
Male rats were divided into a control group and three test groups with 20 animals per group. Animals were administered the MetAP-2 inhibitor Compound I, represented by the formula: Compound I was prepared in a 5% mannitol solution was administered once daily for four weeks by a fifteen-minute intravenous infusion according to Table I. [table] Ten animals from each group were euthanized at the end of the four weeks. The remaining ten animals were allowed to recover for 10 additional weeks and were then euthanized.

Marks after values point to notes of the source that are not given here.

For `CO[C@@H]1[C@H](OC(=O)/C=C/c2ccc(OCCN(C)C)cc2)CCC2(CO2)[C@H]1[C@@]1(C)O[C@@H]1CC=C(C)C` (stereo in doubt) [Compound I], the “Prostate Weight (g) Mean” value is recorded as 0.90** g (0.04 mg/kg/day), 0.89** g (0.2 mg/kg/day) and 0.76** g (1.0 mg/kg/day).
